Reference: ChEMBL document CHEMBL1154538, “Studies on a series of potent, orally bioavailable, 5-HT(1) receptor ligands--part II” (Bioorg Med Chem Lett, 2009)
pKi: −log10 of the molar value. The source made the active and inactive calls. The calls are words filed in the database; no cut-off is given here.

What was measured:
[1] = molecular target: T1, 5-hydroxytryptamine receptor 1A (Homo sapiens, UniProt P08908); assay: Displacement of [125I]WAY100635 from human 5HT1A receptor expressed in CHO cells; type: cell-based
T1 sequence (P08908 whole entry): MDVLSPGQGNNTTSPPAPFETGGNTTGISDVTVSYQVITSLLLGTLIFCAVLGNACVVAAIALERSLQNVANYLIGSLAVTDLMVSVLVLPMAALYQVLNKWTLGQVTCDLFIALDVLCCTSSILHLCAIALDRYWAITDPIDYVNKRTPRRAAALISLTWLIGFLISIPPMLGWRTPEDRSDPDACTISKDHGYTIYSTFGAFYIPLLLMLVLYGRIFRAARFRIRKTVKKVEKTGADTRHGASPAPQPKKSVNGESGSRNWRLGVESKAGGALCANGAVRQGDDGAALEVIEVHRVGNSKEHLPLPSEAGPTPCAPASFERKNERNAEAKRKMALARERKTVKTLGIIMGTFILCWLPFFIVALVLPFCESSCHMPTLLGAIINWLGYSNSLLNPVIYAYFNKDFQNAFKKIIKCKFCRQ

[2] = molecular target: T2, 5-hydroxytryptamine receptor 1D (Homo sapiens, UniProt P28221); assay: Displacement of 3H]5HT from human 5HT1D receptor expressed in CHO cells; type: cell-based
[3] = molecular target: T3, 5-hydroxytryptamine receptor 1B (Homo sapiens, UniProt P28222); assay: Displacement of [3H]5HT from human 5HT1B receptor expressed in CHO cells; type: cell-based
[4] = molecular target: T2, 5-hydroxytryptamine receptor 1D; assay: Intrinsic activity at human 5HT1D receptor expressed in CHO cells by [35S]GTPgammaS binding assay; type: functional, cell-based
[5] = molecular target: T3, 5-hydroxytryptamine receptor 1B; assay: Intrinsic activity at human 5HT1B receptor expressed in CHO cells by [35S]GTPgammaS binding assay; type: functional, cell-based
[6] = molecular target: T4, 5-hydroxytryptamine receptor 1A (Homo sapiens) (UniProt P08908); assay: Intrinsic activity at human 5HT1A receptor expressed in CHO cells by [35S]GTPgammaS binding assay; type: functional, cell-based
T4 sequence (whole entry): T1 sequence (P08908 whole entry)

[7] = Metabolic stability in rat microsomes assessed as intrinsic clearance; type: ADME, Microsome
[8] = Half life in rat at 1 mg/kg, iv; type: ADME, organism-based; set-up: dose 1 mg/kg, route intravenous; conditions: in vivo
[9] = Cmax in rat brain at 3 mg/kg, po; type: ADME, organism-based; set-up: dose 3 mg/kg, route oral
[10] = Ratio of drug level in brain to blood in rat at 3 mg/kg, po; type: ADME, organism-based; set-up: dose 3 mg/kg, route oral; conditions: read-out: BBR
[11] = Volume of distribution at steady state rat; type: ADME, organism-based; conditions: in vivo, read-out: Vdss
[12] = Metabolic stability in human microsomes assessed as intrinsic clearance; type: ADME, Microsome
[13] = Clearance in rat blood at 1 mg/kg, iv; type: ADME, organism-based; set-up: dose 1 mg/kg, route intravenous
[14] = molecular target: T4, 5-hydroxytryptamine receptor 1A (Homo sapiens); assay: Inverse agonist activity at human 5HT1A receptor expressed in CHO cells; type: functional, cell-based

T3 sequence (P28222 whole entry): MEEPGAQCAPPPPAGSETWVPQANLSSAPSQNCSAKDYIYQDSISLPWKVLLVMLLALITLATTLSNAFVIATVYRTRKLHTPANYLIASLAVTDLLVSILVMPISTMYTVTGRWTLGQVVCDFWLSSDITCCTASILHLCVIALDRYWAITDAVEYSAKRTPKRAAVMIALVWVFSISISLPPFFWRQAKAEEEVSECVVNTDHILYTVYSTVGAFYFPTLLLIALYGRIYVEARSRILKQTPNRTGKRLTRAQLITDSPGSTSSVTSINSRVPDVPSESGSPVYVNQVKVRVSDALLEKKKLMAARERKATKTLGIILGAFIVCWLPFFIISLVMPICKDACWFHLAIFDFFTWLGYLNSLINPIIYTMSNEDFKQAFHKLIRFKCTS
T2 sequence (P28221 whole entry): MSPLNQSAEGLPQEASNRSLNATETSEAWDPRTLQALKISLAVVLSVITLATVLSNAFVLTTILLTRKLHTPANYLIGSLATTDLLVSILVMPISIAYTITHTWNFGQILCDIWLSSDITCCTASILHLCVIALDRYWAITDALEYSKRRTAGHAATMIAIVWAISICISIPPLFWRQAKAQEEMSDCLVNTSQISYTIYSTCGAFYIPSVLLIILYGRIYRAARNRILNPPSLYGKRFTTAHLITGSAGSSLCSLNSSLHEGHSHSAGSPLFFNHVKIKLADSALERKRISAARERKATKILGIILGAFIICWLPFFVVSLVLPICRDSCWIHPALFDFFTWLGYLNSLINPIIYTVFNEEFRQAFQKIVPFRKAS

| SMILES | pKi [1] | pKi [2] | pKi [3] | Intrinsic activity [4] | Intrinsic activity [5] | Intrinsic activity [6] | other results |
| --- | --- | --- | --- | --- | --- | --- | --- |
| Cc1ccc2c(OCCN3CCC(Cc4cccc(N5CCN(C)C(=O)C5)c4)CC3)cccc2n1 | 8.10 | 8.00 | 6.90 |  |  |  |  |
| CC(=O)N1CCC(c2cccc(CC3CCN(CCOc4cccc5nc(C)ccc45)CC3)c2)CC1 | 7.90 | 8.40 | 6.80 |  |  |  |  |
| Cc1ccc2c(OCCN3CCC(Cc4cccc(N5CCOCC5)c4)CC3)cccc2n1 | 8.30 | 8.60 | 6.90 | 0.6 | 0.4 | 0 |  |
| Cc1ccc2c(OCCN3CCC(Cc4cccc(-c5ccccc5)c4)CC3)cccc2n1 | 7.20 | 8.10 | 7.20 |  |  |  |  |
| Cc1ccc2c(OCCN3CCC(Cc4cccc(N5C[C@@H](C)N[C@@H](C)C5)c4)CC3)cccc2n1 | 8.70 | 9.10 | 8.40 | 0.5 | 0.3 | 0 |  |
| Cc1ccc2c(OCCN3CCC(Cc4cccc(C5CCNCC5)c4)CC3)cccc2n1 | 8.20 | 8.90 | 8.20 |  |  |  |  |
| Cc1ccc2c(OCCN3CCC(Cc4cccc(N5CCCCC5)c4)CC3)cccc2n1 | 8.40 | 9.00 | 8.70 | 0.7 | 0.6 | 0 | CLint scaled [7]: 6.2 mL/min/kg |
| Cc1ccc2c(OCCN3CCC(Cc4cccc(N5CCN(C)CC5=O)c4)CC3)cccc2n1 | 7.70 | 8.40 | 7.20 |  |  |  |  |
| Cc1ccc2c(OCCN3CCC(Cc4cccc(N5CCCN(C)CC5)c4)CC3)cccc2n1 | 8.60 | 9.20 | 8.10 | 0.5 | 0.3 | 0 | CLint scaled [7]: 26 mL/min/kg |
| Cc1ccc2c(OCCN3CCC(Cc4cccc(-c5cccnc5)c4)CC3)cccc2n1 | 8.30 | 8.70 | 7.90 |  |  |  |  |
| Cc1ccc2c(OCCN3CCC(Cc4cccc(C5CCN(S(C)(=O)=O)CC5)c4)CC3)cccc2n1 | 8.10 | 8.50 | 7.10 |  |  |  |  |
| Cc1ccc2c(OCCN3CCC(Cc4cccc(-c5ccncc5)c4)CC3)cccc2n1 | 8.10 | 9.00 | 8.10 |  |  |  |  |
| Cc1ccc2c(OCCN3CCC(Cc4cccc(N5C[C@@H](C)NC[C@@H]5C)c4)CC3)cccc2n1 | 8.30 | 9.00 | 7.50 |  |  |  |  |
| Cc1ccc2c(OCCN3CCC(Cc4cccc(-c5ccoc5)c4)CC3)cccc2n1 | 7.50 | 8.20 | 7.40 |  |  |  |  |
| Cc1ccc2c(OCCN3CCC(Cc4cccc(N5CCCC5)c4)CC3)cccc2n1 | 8.00 | 8.60 | 7.40 |  |  |  |  |
| Cc1ccc2c(OCCN3CCC(Cc4cccc(N5C[C@@H](C)O[C@@H](C)C5)c4)CC3)cccc2n1 | 8.60 | 8.80 | 6.80 |  |  |  |  |
| Cc1ccc2c(OCCN3CCC(Cc4cccc(N5CCN[C@H](C)C5)c4)CC3)cccc2n1 | 8.60 | 9.20 | 8.70 | 0.5 | 0.3 | 0 |  |
| Cc1ccc2c(OCCN3CCC(Cc4cccc(N5CCN(C)CC5)c4)CC3)cccc2n1 | 9.00 | 9.30 | 8.20 | 0.4 | 0.3 | 0 | half-life [8]: 1.3 h; Cmax [9]: 85 ng/g; Kp [10]: 18; Vd [11]: 4.4 L/kg; CLint scaled [12]: 1.6 mL/min/kg; CLint scaled [7]: 2.9 mL/min/kg; clearance [13]: 46 mL/min/kg |
| Cc1ccc2c(OCCN3CCC(Cc4cccc(C5CCN(C)CC5)c4)CC3)cccc2n1 | 8.50 | 9.70 | 8.30 | 0.4 | 0.3 |  | half-life [8]: 12 h; Cmax [9]: 34 ng/g; Kp [10]: 1.3; Vd [11]: 12.4 L/kg; Activity [14]: Active; CLint scaled [12]: < 0.5 mL/min/kg; CLint scaled [7]: 2 mL/min/kg; clearance [13]: 14 mL/min/kg |
| Cc1ccc2c(OCCN3CCC(Cc4cccc(NS(C)(=O)=O)c4)CC3)cccc2n1 |  |  |  | 0 | 0.3 | 0 |  |
| Cc1ccc2c(OCCN3CCC(Cc4cccc(N5CCN[C@@H](C)C5)c4)CC3)cccc2n1 | 8.40 | 9.00 | 7.80 | 0.5 | 0.3 | 0 |  |
| Cc1ccc2c(OCCN3CCC(Cc4cccc(NC(=O)CN(C)C)c4)CC3)cccc2n1 |  |  |  | 0.4 | 0.2 |  | Activity [14]: Active |
